Laboratory results published in patent publication US5616593A, “Compositions containing piperine” (priority 1993, dated 1997).

Columns and labels:
[1] = Clinical study comparing bio-availability of two amlodipine formulations (with and without piperine); assay type: in vivo, human (healthy volunteers); settings: with vs without piperine; amlodipine 10 mg, piperine 5 mg, hard gelatin capsules; 12 healthy volunteers
Procedure: Dosage Form: Hard gelatin capsules
Amlodipine and piperine were milled. The two components were blended together.
The homogenecity of five random samples of the mixture was confirmed from reproducible analysis. The formulation was then encapsulated in hard gelatin capsule in hand-operated capsule filling machine.
To compare the bio-availability of two formulations containing amlodipine (with and without piperine) a clinical study was conducted in 12 healthy volunteers.

[2] = Retention of certain drugs in the body; parameters: species or system human; settings: combined with piperine
[3] = test system: natural immune mechanism of the body; assay: Stimulation of natural immune mechanism / antibody production; parameters: species or system human
[4] = Absorption of certain drugs through gastro-intestinal membranes; parameters: species or system human; settings: through membranes of gastro-intestinal tract
[5] = cited from earlier work
serum proteins = assay: Binding of the serum proteins; parameters: species or system human; settings: combined with drug
[6] = Intrinsic pharmaceutical or medicinal properties of piperine; settings: piperine alone
[7] = combined with known anti-tuberculosis and/or anti-leprosy drugs; cited from earlier work
[8] = Clinical trial comparing bio-availability of two pentazocine formulations (with and without piperine); assay type: in vivo, human (healthy volunteers); settings: with vs without piperine; pentazocine 25 mg, piperine 5 mg, hard gelatin capsules; 12 healthy volunteers
Procedure: Pentazocine -- -- 25 mg.
Dosage Form: Hard gelatin capsules.
Both pentazocine and piperine were milled and were then blended together. With repeated sieving, both the components were mixed to a homogenous mixture. Five samples of mixtures were randomly selected and their homogenecity was confirmed by reproducible analysis. With the help of hand-operated capsule filling machine, the formulation was encapsulated in hard gelatin capsule.
A clinical trial was conducted in 12 healthy volunteers in order to compare the bio-availability of two formulations containing pentazocine (with and without piperine).

CCOC(=O)C1=C(COCCN)NC(C)=C(C(=O)OC)C1c1ccccc1Cl (stereo not shown) [Amlodipine]
blood levels of the active ingredient amlodipine [1]: increased blood levels

O=C(/C=C/C=C/c1ccc2c(c1)OCO2)N1CCCCC1 [Piperine]
retention of certain drugs in the human body [2]: retain certain drugs when combined with it in the human body for a longer period of time
stimulation of natural immune mechanism, production of antibodies against microbial infections [3]: stimulate the natural immune mechanism of the body so as to enhance the production of antibodies against microbial infections
absorption of certain drugs [4]: increase the absorption of certain drugs
solubility in organic solvents ([5]; benzene, chloroform, ether, ethyl acetate, dichloromethane, alcohol, acetic acid): soluble in benzene, chloroform, ether, ethyl acetate, dichloromethane, alcohol, acetic acid
solubility in water and petroleum ether ([5]; water, petroleum ether): insoluble in water, and petroleum ether
binding of the serum proteins (serum proteins): increase the binding of the serum proteins
pharmaceutical or medicinal properties of piperine as such [6]: does not have any pharmaceutical or medicinal properties
therapeutic efficacy of anti-tuberculosis and/or anti-leprosy drugs [7]: increased therapeutic efficacy

CC(C)=CCN1CCC2(C)c3cc(O)ccc3CC1C2C (stereo not shown) [pentazocine]
blood levels of the active ingredient pentazocine [8]: increased blood levels
